Publication PMC9204756 (2022)
Values belong to the compound of their own block, whether it stands above or below them.

Key:
[1] = system: FMN riboswitch aptamer (FMN RNA) (RNA, riboswitch) GGGUGUAUCCUUCGGGGCAGGGUGGAAAUCCCGACCGGCGGUAGUAAAGCACAUUUGCUUUAGAGCCCGUGACCCGUGUGCAUAAGCACGCGGUGGAUUCAGUUUAAGCUGAAGCCGACAGUGAAAGUCUGGAUGGGAGAAGGAUGA; assay: photoaffinity labeling, Cy5 click fluorescence; conditions: covalent, 10 μM probe
[2] = system: FMN RT RNA (FMN riboswitch in structure cassette) (RNA, riboswitch) GGGCCUUCGGGCCAAUGUAUCCUUCGGGGCAGGGUGGAAAUCCCGACCGGCGGUAGUAAAGCACAUUUGCUUUAGAGCCCGUGACCCGUGUGCAUAAGCACGCGGUGGAUUCAGUUUAAGCUGAAGCCGACAGUGAAAGUCUGGAUGGGAGAAGGAUGAUCGAUCCGGUUCGCCGGAUCCAAAUCGGGCUUCGGUCCGGUUC; assay: SHAPE (NAI); conditions: 15 mM MgCl2, 100 mM KCl; 50 mM HEPES pH 8.0, 37 °C; 100 μM compound
[3] = system: FMN RT RNA (FMN riboswitch in structure cassette) (RNA, riboswitch) GGGCCUUCGGGCCAAUGUAUCCUUCGGGGCAGGGUGGAAAUCCCGACCGGCGGUAGUAAAGCACAUUUGCUUUAGAGCCCGUGACCCGUGUGCAUAAGCACGCGGUGGAUUCAGUUUAAGCUGAAGCCGACAGUGAAAGUCUGGAUGGGAGAAGGAUGAUCGAUCCGGUUCGCCGGAUCCAAAUCGGGCUUCGGUCCGGUUC; assay: reverse transcription termination after photo-cross-linking; conditions: covalent; folding buffer, 37 °C; 10 μM probe, 2 μM RNA; stops competed by FMN
[4] = system: FMN riboswitch aptamer (FMN RNA) (RNA, riboswitch) GGGUGUAUCCUUCGGGGCAGGGUGGAAAUCCCGACCGGCGGUAGUAAAGCACAUUUGCUUUAGAGCCCGUGACCCGUGUGCAUAAGCACGCGGUGGAUUCAGUUUAAGCUGAAGCCGACAGUGAAAGUCUGGAUGGGAGAAGGAUGA; assay: photoaffinity labeling, Cy5 click fluorescence and PAGE; conditions: covalent; 10 μM probe; competed out by 10 μM FMN
[5] = system: FMN riboswitch aptamer (FMN RNA) (RNA, riboswitch) GGGUGUAUCCUUCGGGGCAGGGUGGAAAUCCCGACCGGCGGUAGUAAAGCACAUUUGCUUUAGAGCCCGUGACCCGUGUGCAUAAGCACGCGGUGGAUUCAGUUUAAGCUGAAGCCGACAGUGAAAGUCUGGAUGGGAGAAGGAUGA; assay: competitive photoaffinity labeling, PAGE; conditions: displaces probe 1 (10 μM), UV cross-linked, fluorescein-azide click
[6] = system: FMN riboswitch aptamer (FMN RNA) (RNA, riboswitch) GGGUGUAUCCUUCGGGGCAGGGUGGAAAUCCCGACCGGCGGUAGUAAAGCACAUUUGCUUUAGAGCCCGUGACCCGUGUGCAUAAGCACGCGGUGGAUUCAGUUUAAGCUGAAGCCGACAGUGAAAGUCUGGAUGGGAGAAGGAUGA; assay: competitive photoaffinity labeling, microplate reader fluorescence; conditions: displaces probe 1

Compound: Cc1cc2nc3c(=O)[nH]c(=O)nc-3n(C[C@H](O)[C@H](O)[C@H](O)CO)c2cc1N(C)C
apparent IC50 [5]: 7000 ± 180 nM

Compound: C#CC[C@@H](C(=O)NCCc1ccc(C(=O)c2ccccc2)cc1)N(CCCC(=O)O)CCn1c2nc(=O)[nH]c(=O)c-2nc2cc(C)c(C)cc21
binding ([1]; low click efficiency not excluded): weak

Compound: Cc1cc2nc3c(=O)[nH]c(=O)nc-3n(C[C@H](O)[C@H](O)[C@H](O)COP(=O)(O)O)c2cc1C
apparent IC50 [6]: 400 ± 10 nM
binding [2]: yes
apparent IC50 [5]: 400 ± 10 nM

Further lines, results first:

binding [1]: yes
Compound: C#CC[C@@H](C(=O)NCCc1ccc(N=[N+]=[N-])cc1)N(CCCC(=O)O)CCn1c2nc(=O)[nH]c(=O)c-2nc2cc(C)c(C)cc21

binding [2]: yes
binding [3]: yes
binding [4]: yes
Compound: C#CC[C@@H](C(=O)NCCC1(C)N=N1)N(CCCC(=O)O)CCn1c2nc(=O)[nH]c(=O)c-2nc2cc(C)c(C)cc21
